From patent US20070049593A1 (priority 2004, published 2007)
Where a name gives a salt, the structure may show the parent alone.

target: T1, HCV polymerase (Hepatitis C virus genotype 1b, UniProt P26663); experiment: biochemical; design: species or system HCV BK strain; conditions: not given
T1 construct: a region encoding NS5B (J Virol 1991 March, 65(3), 1105-13, 544 amino acids after deletion of 47 amino acids on the C-terminal); 6xHis (C); made in house; host or cells: Escherichia coli
In short: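 His-tagged NS5B (BK strain, 47-aa C-terminal deletion, E. coli-expressed) at 0.5 μg/ml copied 5 μg/ml run-off RNA bearing the HCV 3′ UTR with 2 μM UTP plus [3H]UTP, 50 μM ATP/GTP, in pH 7.5 Tris with 5 mM MgCl2, 25 °C, 90 min. TCA-precipitated RNA was counted and IC50 calculated.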

T1 sequence (P26663 2420-2963): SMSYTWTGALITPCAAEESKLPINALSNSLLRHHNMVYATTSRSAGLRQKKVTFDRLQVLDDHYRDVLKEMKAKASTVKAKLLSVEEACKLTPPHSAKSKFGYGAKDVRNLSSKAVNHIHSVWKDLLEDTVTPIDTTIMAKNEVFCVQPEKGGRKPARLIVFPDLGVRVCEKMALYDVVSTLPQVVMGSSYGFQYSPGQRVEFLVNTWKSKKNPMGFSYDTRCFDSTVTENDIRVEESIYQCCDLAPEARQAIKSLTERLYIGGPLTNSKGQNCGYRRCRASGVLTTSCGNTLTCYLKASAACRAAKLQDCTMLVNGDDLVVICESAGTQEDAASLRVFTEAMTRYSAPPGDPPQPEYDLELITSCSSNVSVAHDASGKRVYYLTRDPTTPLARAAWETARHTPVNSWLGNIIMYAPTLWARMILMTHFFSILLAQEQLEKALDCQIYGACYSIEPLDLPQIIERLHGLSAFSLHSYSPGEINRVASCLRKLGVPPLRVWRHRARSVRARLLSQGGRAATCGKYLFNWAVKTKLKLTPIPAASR

SMILES	IC50 [nM]
CC[C@@H]1CCCN(CCN2CCn3c(c(C4CCCCC4)c4ccc(C(=O)O)cc43)-c3ccc(C)cc32)C1 [Example 1-420, 13-cyclohexyl-5-[2-((R)-3-ethylpiperidin-1-yl)ethyl]-3-methyl-6,7-dihydro-5H-benzo[5,6][1,4]diazepino[7,1-a]indole-10-carboxylic acid dihydrochloride]	< 100
CC[C@H]1CCCN(CCN2CCn3c(c(C4CCCCC4)c4ccc(C(=O)O)cc43)-c3ccc(C)cc32)C1 [Example 1-422, 13-cyclohexyl-5-[2-((S)-3-ethylpiperidin-1-yl)ethyl]-3-methyl-6,7-dihydro-5H-benzo[5,6][1,4]diazepino[7,1-a]indole-10-carboxylic acid dihydrochloride]	< 100
CCN(CC)CCCCN1CCn2c(c(C3CCCCC3)c3ccc(C(=O)O)cc32)-c2ccc(Cl)cc21 [Example 1-424, 3-chloro-13-cyclohexyl-5-(4-diethylaminobutyl)-6,7-dihydro-5H-benzo[5,6][1,4]diazepino[7,1-a]indole-10-carboxylic acid]	< 100
Cc1ccc2c(c1)N(CCCCN1CCCCC1)CCn1c-2c(C2CCCCC2)c2ccc(C(=O)O)cc21 [Example 1-425, 13-cyclohexyl-3-methyl-5-[4-(piperidin-1-yl)butyl]-6,7-dihydro-5H-benzo[5,6][1,4]diazepino[7,1-a]indole-10-carboxylic acid dihydrochloride]	< 100
CN1CCCC1CCN1CCn2c(c(C3CCCCC3)c3ccc(C(=O)O)cc32)-c2ccc(Cl)cc21 (centres unmarked) [Example 1-426, 3-chloro-13-cyclohexyl-5-[2-(1-methylpyrrolidin-2-yl)ethyl]-6,7-dihydro-5H-benzo[5,6][1,4]diazepino[7,1-a]indole-10-carboxylic acid dihydrochloride]	< 100
CCOc1ccc2c(c1)N(CCN1CCC[C@@H](CCOC)C1)CCn1c-2c(C2CCCCC2)c2ccc(C(=O)O)cc21 [Example 1-427, 13-cyclohexyl-3-ethoxy-5-{2-[(S)-3-(2-methoxyethyl)piperidin-1-yl]ethyl}-6,7-dihydro-5H-benzo[5,6][1,4]diazepino[7,1-a]indole-10-carboxylic acid dihydrochloride]	< 100
CCCN(CC)CCCN1CCn2c(c(C3CCCCC3)c3ccc(C(=O)O)cc32)-c2ccc(Cl)cc21 [Example 1-428, 3-chloro-13-cyclohexyl-5-[3-(N-ethyl-N-propylamino)propyl]-6,7-dihydro-5H-benzo[5,6][1,4]diazepino[7,1-a]indole-10-carboxylic acid dihydrochloride]	< 100
CC(C)N(CCCN1CCn2c(c(C3CCCCC3)c3ccc(C(=O)O)cc32)-c2ccc(Cl)cc21)C(C)C [Example 1-429, 3-chloro-13-cyclohexyl-5-(3-diisopropylaminopropyl)-6,7-dihydro-5H-benzo[5,6][1,4]diazepino[7,1-a]indole-10-carboxylic acid dihydrochloride]	< 100
CCc1ccc2c(c1)N(CCN1CCC[C@@H](CCOC)C1)CCn1c-2c(C2CCCCC2)c2ccc(C(=O)O)cc21 [Example 1-430, 13-cyclohexyl-3-ethyl-5-{2-[(S)-3-(2-methoxyethyl)piperidin-1-yl]ethyl}-6,7-dihydro-5H-benzo[5,6][1,4]diazepino[7,1-a]indole-10-carboxylic acid dihydrochloride]	< 100
CCN(CCCN1CCn2c(c(C3CCCCC3)c3ccc(C(=O)O)cc32)-c2ccc(Cl)cc21)CCOC [Example 1-431, 3-chloro-13-cyclohexyl-5-{3-[N-ethyl-N-(2-methoxyethyl)amino]propyl}-6,7-dihydro-5H-benzo[5,6][1,4]diazepino[7,1-a]indole-10-carboxylic acid dihydrochloride]	< 100
CCN(CCCOC)CCCN1CCn2c(c(C3CCCCC3)c3ccc(C(=O)O)cc32)-c2ccc(Cl)cc21 [Example 1-432, 3-chloro-13-cyclohexyl-5-{3-[N-ethyl-N-(3-methoxypropyl)amino]propyl}-6,7-dihydro-5H-benzo[5,6][1,4]diazepino[7,1-a]indole-10-carboxylic acid dihydrochloride]	< 100
CCOCCCN(CC)CCCN1CCn2c(c(C3CCCCC3)c3ccc(C(=O)O)cc32)-c2ccc(Cl)cc21 [Example 1-433, 3-chloro-13-cyclohexyl-5-{3-[N-(3-ethoxypropyl)-N-ethylamino]propyl}-6,7-dihydro-5H-benzo[5,6][1,4]diazepino[7,1-a]indole-10-carboxylic acid dihydrochloride]	< 100
COCC[C@@H]1CCCN(CCN2CCn3c(c(C4CCCCC4)c4ccc(C(=O)O)cc43)-c3ccc(F)cc32)C1 [Example 1-434, 13-cyclohexyl-3-fluoro-5-{2-[(S)-3-(2-methoxyethyl)piperidin-1-yl]ethyl}-6,7-dihydro-5H-benzo[5,6][1,4]diazepino[7,1-a]indole-10-carboxylic acid dihydrochloride]	< 100
Cc1ccc2c(c1)N(CCN1CCCC(CO)C1)CCn1c-2c(C2CCCCC2)c2ccc(C(=O)O)cc21 (centres unmarked) [Example 1-435, 13-cyclohexyl-5-[2-(3-hydroxymethylpiperidin-1-yl)ethyl]-3-methyl-6,7-dihydro-5H-benzo[5,6][1,4]diazepino[7,1-a]indole-10-carboxylic acid dihydrochloride]	< 100
CCN(CC)CC(C)(C)CN1CCn2c(c(C3CCCCC3)c3ccc(C(=O)O)cc32)-c2ccc(Cl)cc21 [Example 1-436, 3-chloro-13-cyclohexyl-5-(3-diethylamino-2,2-dimethylpropyl)-6,7-dihydro-5H-benzo[5,6][1,4]diazepino[7,1-a]indole-10-carboxylic acid dihydrochloride]	< 100
CN1CCn2c(c(C3CCCCC3)c3ccc(C(=O)O)cc32)-c2ccc(OCCN3CCCCC3)cc21 [Example 1-437, 13-cyclohexyl-5-methyl-3-[2-(piperidin-1-yl)ethoxy]-6,7-dihydro-5H-benzo[5,6][1,4]diazepino[7,1-a]indole-10-carboxylic acid dihydrochloride]	< 100
CN1CCn2c(c(C3CCCCC3)c3ccc(C(=O)O)cc32)-c2ccc(OCCC3CCNCC3)cc21 [Example 1-438, 13-cyclohexyl-5-methyl-3-[2-(piperidin-4-yl)ethoxy]-6,7-dihydro-5H-benzo[5,6][1,4]diazepino[7,1-a]indole-10-carboxylic acid dihydrochloride]	< 100
CN1CCC(CCOc2ccc3c(c2)N(C)CCn2c-3c(C3CCCCC3)c3ccc(C(=O)O)cc32)CC1 [Example 1-439, 13-cyclohexyl-5-methyl-3-[2-(1-methylpiperidin-4-yl)ethoxy]-6,7-dihydro-5H-benzo[5,6][1,4]diazepino[7,1-a]indole-10-carboxylic acid dihydrochloride]	< 100
Cc1ccc2c(c1)N(CCN1CCCC(C)(C)C1)CCn1c-2c(C2CCCCC2)c2ccc(C(=O)O)cc21 [Example 1-440, 13-cyclohexyl-5-[2-(3,3-dimethylpiperidin-1-yl)ethyl]-3-methyl-6,7-dihydro-5H-benzo[5,6][1,4]diazepino[7,1-a]indole-10-carboxylic acid dihydrochloride]	< 100
CCN(CC)CC(CN1CCn2c(c(C3CCCCC3)c3ccc(C(=O)O)cc32)-c2ccc(Cl)cc21)OC (centres unmarked) [Example 1-441, 3-chloro-13-cyclohexyl-5-(3-diethylamino-2-methoxypropyl)-6,7-dihydro-5H-benzo[5,6][1,4]diazepino[7,1-a]indole-10-carboxylic acid dihydrochloride]	< 100
CCN(CCO)CCCN1CCn2c(c(C3CCCCC3)c3ccc(C(=O)O)cc32)-c2ccc(Cl)cc21 [Example 1-442, 3-chloro-13-cyclohexyl-5-{3-[N-ethyl-N-(2-hydroxyethyl)amino]propyl}-6,7-dihydro-5H-benzo[5,6][1,4]diazepino[7,1-a]indole-10-carboxylic acid dihydrochloride]	< 100
Cc1ccc2c(c1)N(CCN1CCC(CO)CC1)CCn1c-2c(C2CCCCC2)c2ccc(C(=O)O)cc21 [Example 1-443, 13-cyclohexyl-5-[2-(4-hydroxymethylpiperidin-1-yl)ethyl]-3-methyl-6,7-dihydro-5H-benzo[5,6][1,4]diazepino[7,1-a]indole-10-carboxylic acid dihydrochloride]	< 100
O=C(O)c1ccc2c(C3CCCCC3)c3n(c2c1)CCN(CCN1CCC[C@@H](CCOc2ccccc2)C1)c1ccccc1-3 [Example 1-444, 13-cyclohexyl-5-{2-[(S)-3-(2-phenoxyethyl)piperidin-1-yl]ethyl}-6,7-dihydro-5H-benzo[5,6][1,4]diazepino[7,1-a]indole-10-carboxylic acid dihydrochloride]	< 100
COCC[C@@H]1CCCN(CCN2CCn3c(c(C4CCCCC4)c4ccc(C(=O)O)cc43)-c3ccc(OC)cc32)C1 [Example 1-445, 13-cyclohexyl-3-methoxy-5-{2-[(S)-3-(2-methoxyethyl)piperidin-1-yl]ethyl}-6,7-dihydro-5H-benzo[5,6][1,4]diazepino[7,1-a]indole-10-carboxylic acid dihydrochloride]	< 100
CSc1ccc2c(c1)N(C)CCn1c-2c(C2CCCCC2)c2ccc(C(=O)NC3(C(=O)Nc4ccc(/C=C/C(=O)O)cc4)CCC3)cc21 [Example 1-450, (E)-3-[4-({1-[(13-cyclohexyl-5-methyl-3-methylsulfanyl-6,7-dihydro-5H-benzo[5,6][1,4]diazepino[7,1-a]indole-10-carbonyl)amino]cyclobutanecarbonyl}amino)phenyl]acrylic acid]	< 100

same assay, conditions: read-out: HCV polymerase inhibitory activity IC50; 25° C., 90 min; [5,6-3H]UTP incorporation into RNA

SMILES	IC50 [nM]
O=C(O)c1ccc2c(C3CCCCC3)c3n(c2c1)CCN(CCN1CCCCCCC1)c1ccccc1-3 [Example 1-423, 5-[2-(azocan-1-yl)ethyl]-13-cyclohexyl-6,7-dihydro-5H-benzo[5,6][1,4]diazepino[7,1-a]indole-10-carboxylic acid dihydrochloride]	< 100
